Data on 4 compounds can be found in ChEMBL document CHEMBL1141256, “Panaxadiol glycosides that induce neuronal differentiation in neurosphere stem cells” (2007).

Activity calls are given as the source filed them. The calls are words filed in the database; no cut-off is given here.

Test [1] is described as follows: Neurogenesis in TUJ+MAP2+ mouse neural stem cells at 1 uM relative to control.
Test [2] is described as follows: Neurogenesis in GFAP+ mouse neural stem cells at 1 uM relative to control.
Test [3] can be described thus: Neurogenesis in TOPRO+ mouse neural stem cells at 1 uM relative to control.
Test [4] is described as follows: Neurogenesis in GFAP+ mouse neural stem cells at 8 uM after 24 hrs relative to control.
Test [5] can be described thus: Neurogenesis in TUJ+MAP2+ mouse neural stem cells at 8 uM for 24 hrs relative to control.
A short description of test [6]: Neurogenesis in TOPRO+ mouse neural stem cells at 8 uM after 24 hrs relative to control.
Test [7] in a line: Neurogenesis of TUJ/MAP2+ mouse neural stem cells at 8 uM assessed as calcium influx relative to control.
Test [8] relates to Neural stem cell. The experiment in a line: Neurogenesis of TUJ/MAP2+ mouse neural stem cells at 8 uM afte 12, 24, 48 hrs.
Test [9] deals with Neural stem cell. Nature of the test: Decrease in number of neurons in TUJ/MAP2+ mouse neural stem cells at 8 uM after 72 hrs.
Test [10] is described as follows: Neurogenesis of TUJ/MAP2+ mouse neural stem cells at 8 uM in presence of 5 uM nifedipine assessed as calcium influx relative to control.
Test [11] deals with Neural stem cell. The experiment in a line: Decrease in number of neurons in TUJ/MAP2+ mouse neural stem cells at 15 uM.
Test [12] relates to Neural stem cell. The experiment in a line: Neuronal differentiation in TUJ/MAP2+ EGF responsive mouse neural stem cells at 1 to 8 uM after 72 hrs.
Test [13] relates to Neural stem cell. The experiment in a line: Increase in calcium concentration in mouse neural stem cells at 5 uM assessed as […] ratio F350/F380. The settings on record: TDE = time-dependent effect.
The subject of test [14] is Neural stem cell. The experiment in a line: Inhibition of calcium induced neurogenesis in mouse neural stem cells in presence of 10 uM nifedipine.

Consider `CC1=C(/C=C/C(C)=C/C=C/C(C)=C/C(=O)O)C(C)(C)CCC1` [TRETINOIN], for which the Activity in test [1] stood at 16.5%; in [2], 36.3%; in [3], 148%.

Regarding `C=C(CCC=C(C)C)[C@H]1CC[C@]2(C)[C@@H]1[C@H](O)C[C@@H]1[C@@]3(C)CC[C@H](O[C@@H]4O[C@H](CO)[C@@H](O)[C@H](O)[C@H]4O[C@@H]4O[C@H](CO)[C@@H](O)[C@H](O)[C@H]4O)C(C)(C)[C@@H]3CC[C@]12C` [GISENOSIDE RK1], the values for the Activity in [4], in test [5] and in test [6] were 28.8%, 28.4% and 107%, respectively.

On to `CC(C)=CC/C=C(\C)[C@H]1CC[C@]2(C)[C@@H]1[C@H](O)C[C@@H]1[C@@]3(C)CC[C@H](O[C@@H]4O[C@H](CO)[C@@H](O)[C@H](O)[C@H]4O[C@@H]4O[C@H](CO)[C@@H](O)[C@H](O)[C@H]4O)C(C)(C)[C@@H]3CC[C@]12C` [GINSENOSIDE RG5], for which the Activity was 25.2% in test [4]; 29.6% in [7]; 4% in test [10]; 30.5% in test [5]; 132% in test [6]; “tde” in the test on Neural stem cell [13]. The outcome in the test with Neural stem cell [8], in the test with Neural stem cell [9], with Neural stem cell [11], in the test on Neural stem cell [12] and with Neural stem cell [14] was Active.

Take `CC(C)=CCC[C@](C)(O)[C@H]1CC[C@]2(C)[C@@H]1[C@H](O)C[C@@H]1[C@@]3(C)CC[C@H](O[C@@H]4O[C@H](CO)[C@@H](O)[C@H](O)[C@H]4O[C@@H]4O[C@H](CO)[C@@H](O)[C@H](O)[C@H]4O)C(C)(C)[C@@H]3CC[C@]12C`: the Activity came out at 35.9% in test [4], 16.1% in test [5] and 140% in test [6].
